Experimental data as given in ChEMBL document CHEMBL1201861, “Genomics of Drug Sensitity in Cancer screening data, Wellcome Trust Sanger Institute”.

Columns and labels:
Assay in all cases: cells
NB7 = format: functional, cell-based, Homo sapiens; conditions: Homo sapiens, NB7;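 note: growth inhibition of NB7 cells, read out with a cell viability assay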
Description: SANGER: Inhibition of human NB7 cell growth in a cell viability assay.

HuCCT-1 = format: functional, cell-based, Homo sapiens, HuCCT1; conditions: Homo sapiens, HuCCT-1;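 note: growth inhibition of HuCCT-1 cells, read out by a cell viability assay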
Description: SANGER: Inhibition of human HuCCT1 cell growth in a cell viability assay.

SW948 = format: functional, cell-based, Homo sapiens; conditions: Homo sapiens, SW948;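 note: growth inhibition of SW948 cells, read out with a cell viability assay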
Description: SANGER: Inhibition of human SW948 cell growth in a cell viability assay.

CAL-12T = format: functional, cell-based, Homo sapiens; conditions: Homo sapiens, CAL-12T;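 note: growth inhibition of human CAL-12T cells, read out with a cell viability assay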
Description: SANGER: Inhibition of human CAL-12T cell growth in a cell viability assay.

SF-295 = format: functional, cell-based, Homo sapiens; conditions: Homo sapiens, SF-295;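 note: growth inhibition of SF-295 cells, read out with a cell viability assay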
Description: SANGER: Inhibition of human SF295 cell growth in a cell viability assay.

NB14 = format: functional, cell-based, Homo sapiens; conditions: Homo sapiens, NB14;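 note: growth inhibition of NB14 cells measured with a cell viability assay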
Description: SANGER: Inhibition of human NB14 cell growth in a cell viability assay.

IGROV-1 = format: functional, cell-based, Homo sapiens; conditions: Homo sapiens, IGROV-1;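 note: reduction of IGROV-1 cell growth, read out with a viability assay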
Description: SANGER: Inhibition of human IGROV-1 cell growth in a cell viability assay.

D-566MG = format: functional, cell-based, Homo sapiens; conditions: Homo sapiens, D-566MG
NCI-H810 = format: functional, cell-based, Homo sapiens; conditions: Homo sapiens, NCI-H810;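 note: IC50 reflects inhibition of cancer cell line growth, read out with a cell viability assay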
Description: SANGER: Inhibition of human NCI-H810 cell growth in a cell viability assay.

LU-99A = format: functional, cell-based, Homo sapiens; conditions: Homo sapiens, LU-99A;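 note: growth inhibition of LU-99A cells, read out with a cell viability assay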
Description: SANGER: Inhibition of human LU-99A cell growth in a cell viability assay.

BFTC-909 = format: functional, cell-based, Homo sapiens; conditions: Homo sapiens, BFTC-909
Description: SANGER: Inhibition of human BFTC-909 cell growth in a cell viability assay.

C32 = format: functional, cell-based, Homo sapiens; conditions: Homo sapiens, C32;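 note: cell viability assay, with IC50 reflecting inhibition of C32 cell growth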
Description: SANGER: Inhibition of human C32 cell growth in a cell viability assay.

G-402 = format: functional, cell-based, Homo sapiens; conditions: Homo sapiens, G-402
Description: SANGER: Inhibition of human G-402 cell growth in a cell viability assay.

MKN-7 = format: functional, cell-based, Homo sapiens; conditions: Homo sapiens, MKN-7;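 note: growth inhibition of MKN-7 cells, read out with a cell viability assay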
Description: SANGER: Inhibition of human MKN7 cell growth in a cell viability assay.

NCI-H2291 = format: functional, cell-based, Homo sapiens; conditions: Homo sapiens, NCI-H2291
Description: SANGER: Inhibition of human NCI-H2291 cell growth in a cell viability assay.

A673 = format: functional, cell-based, Homo sapiens; conditions: Homo sapiens, A673;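 note: growth inhibition of human A673 cells, read out through a cell viability assay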
Description: SANGER: Inhibition of human A673 cell growth in a cell viability assay.

Daoy = format: functional, cell-based, Homo sapiens; conditions: Homo sapiens, Daoy;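 note: daoy cell growth inhibition, read out as cell viability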
Description: SANGER: Inhibition of human Daoy cell growth in a cell viability assay.

NCI-H358 = format: functional, cell-based, Homo sapiens; conditions: Homo sapiens, NCI-H358;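 note: growth inhibition of NCI-H358 human cells, read out with a cell viability assay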
Description: SANGER: Inhibition of human NCI-H358 cell growth in a cell viability assay.

EFO-27 = format: functional, cell-based, Homo sapiens; conditions: Homo sapiens, EFO-27;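 note: growth inhibition of EFO-27 cells, read out with a cell viability assay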
Description: SANGER: Inhibition of human EFO-27 cell growth in a cell viability assay.

NCI-H2452 = format: functional, cell-based, Homo sapiens; conditions: Homo sapiens, NCI-H2452;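 note: growth inhibition of NCI-H2452 cells, read out with a cell viability assay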
Description: SANGER: Inhibition of human NCI-H2452 cell growth in a cell viability assay.

Capan-2 = format: functional, cell-based, Homo sapiens; conditions: Homo sapiens, Capan-2;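 note: Capan-2 cell growth inhibition, read out with a viability assay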
Description: SANGER: Inhibition of human Capan-2 cell growth in a cell viability assay.

HMV-2 cell line = format: functional, cell-based, Homo sapiens; conditions: Homo sapiens, HMV-2;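 note: growth inhibition of HMV-II cells, read out with a cell viability assay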
Description: SANGER: Inhibition of human HMV-II cell growth in a cell viability assay.

OVCAR-5 = format: functional, cell-based, Homo sapiens; conditions: Homo sapiens, OVCAR-5;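 note: growth inhibition of human OVCAR-5 cells, read out with a cell viability assay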
Description: SANGER: Inhibition of human OVCAR-5 cell growth in a cell viability assay.

EPLC-272H = format: functional, cell-based, Homo sapiens; conditions: Homo sapiens, EPLC-272H
Description: SANGER: Inhibition of human EPLC-272H cell growth in a cell viability assay.

RMG-I = format: functional, cell-based, Homo sapiens; conditions: Homo sapiens, RMG-I;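 note: growth inhibition of human RMG-I cells, read out with a cell viability assay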
Description: SANGER: Inhibition of human RMG-I cell growth in a cell viability assay.

MKN-1 = format: functional, cell-based, Homo sapiens; conditions: Homo sapiens, MKN-1;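 note: growth inhibition of human MKN1 cells, read out by a cell viability measurement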
Description: SANGER: Inhibition of human MKN1 cell growth in a cell viability assay.

SN12C = format: functional, cell-based, Homo sapiens; conditions: Homo sapiens, SN12C;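 note: growth inhibition of human SN12C cells, measured by a cell viability assay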
Description: SANGER: Inhibition of human SN12C cell growth in a cell viability assay.

SW626 = format: functional, cell-based, Homo sapiens; conditions: Homo sapiens, SW626;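 note: growth inhibition of SW626 cells, measured with a cell viability assay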
Description: SANGER: Inhibition of human SW626 cell growth in a cell viability assay.

TCC-SUP = format: functional, cell-based, Homo sapiens; conditions: Homo sapiens, TCC-SUP;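 note: growth inhibition of TCC-SUP cells, read out with a cell viability assay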
Description: SANGER: Inhibition of human TCCSUP cell growth in a cell viability assay.

CAL-33 = format: functional, cell-based, Homo sapiens; conditions: Homo sapiens, CAL-33;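 note: growth inhibition of CAL-33 cells, read out with a cell viability assay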
Description: SANGER: Inhibition of human CAL-33 cell growth in a cell viability assay.

A-427 = format: functional, cell-based, Homo sapiens; conditions: Homo sapiens, A-427;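 note: growth inhibition of human A-427 cells, read out by a cell viability assay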
Description: SANGER: Inhibition of human A427 cell growth in a cell viability assay.

SK-HEP1 = format: functional, cell-based, Homo sapiens, SK-HEP-1; conditions: Homo sapiens, SK-HEP1;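 note: cell viability readout used to quantify reduction in proliferation of human SK-HEP-1 cells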
Description: SANGER: Inhibition of human SK-HEP-1 cell growth in a cell viability assay.

WM-115 = format: functional, cell-based, Homo sapiens; conditions: Homo sapiens, WM-115
Description: SANGER: Inhibition of human WM-115 cell growth in a cell viability assay.

U-118-MG = format: functional, cell-based, Homo sapiens; conditions: Homo sapiens, U-118-MG
Description: SANGER: Inhibition of human U-118-MG cell growth in a cell viability assay.

BHY = format: functional, cell-based, Homo sapiens; conditions: Homo sapiens, BHY;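 note: cell growth inhibition read out by a viability assay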
Description: SANGER: Inhibition of human BHY cell growth in a cell viability assay.

HT55 = format: functional, cell-based, Homo sapiens; conditions: Homo sapiens, HT55;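 note: cell viability readout measuring growth inhibition of human HT55 cells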
Description: SANGER: Inhibition of human HT55 cell growth in a cell viability assay.

PANC-08-13 = format: functional, cell-based, Homo sapiens; conditions: Homo sapiens, PANC-08-13;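 note: cell growth inhibition, measured with a cell viability assay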
Description: SANGER: Inhibition of human PANC-08-13 cell growth in a cell viability assay.

23132-87 = format: functional, cell-based, Homo sapiens; conditions: Homo sapiens
Description: SANGER: Inhibition of human 23132-87 cell growth in a cell viability assay.

Raji = format: functional, cell-based, Homo sapiens; conditions: Homo sapiens, Raji;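 note: cell viability assay measuring inhibition of Raji cell growth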
Description: SANGER: Inhibition of human Raji cell growth in a cell viability assay.

NCI-H1694 = format: functional, cell-based, Homo sapiens; conditions: Homo sapiens, NCI-H1694;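 note: cell viability assay measuring inhibition of growth in human NCI-H1694 cells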
Description: SANGER: Inhibition of human NCI-H1694 cell growth in a cell viability assay.

MHH-CALL-2 = format: functional, cell-based, Homo sapiens; conditions: Homo sapiens, MHH-CALL-2;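 note: growth inhibition of the cell line, read out in a cell viability assay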
Description: SANGER: Inhibition of human MHH-CALL-2 cell growth in a cell viability assay.

NCI-H1436 = format: functional, cell-based, Homo sapiens; conditions: Homo sapiens, NCI-H1436;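 note: growth suppression of human NCI-H1436 cells, determined with a cell viability readout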
Description: SANGER: Inhibition of human NCI-H1436 cell growth in a cell viability assay.

G-361 = format: functional, cell-based, Homo sapiens; conditions: Homo sapiens, G-361
NCI-H748 = format: functional, cell-based, Homo sapiens; conditions: Homo sapiens, NCI-H748;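 note: growth inhibition of NCI-H748 cells, measured by a cell viability assay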
Description: SANGER: Inhibition of human NCI-H748 cell growth in a cell viability assay.

K052 = format: functional, cell-based, Homo sapiens; conditions: Homo sapiens, K052;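 note: Read-out from a cell viability assay, IC50 reflecting suppression of K052 cell growth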
Description: SANGER: Inhibition of human K052 cell growth in a cell viability assay.

SK-MM-2 = format: functional, cell-based, Homo sapiens; conditions: Homo sapiens, SK-MM-2;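 note: growth inhibition of human SK-MM-2 cells, read out with a cell viability assay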
Description: SANGER: Inhibition of human SK-MM-2 cell growth in a cell viability assay.

CMK = format: functional, cell-based, Homo sapiens; conditions: Homo sapiens, CMK;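 note: growth inhibition of CMK cells, read out as cell viability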
Description: SANGER: Inhibition of human CMK cell growth in a cell viability assay.

LC4-1 = format: functional, cell-based, Homo sapiens; conditions: Homo sapiens, LC4-1;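 note: growth inhibition of LC4-1 cells, read out with a cell viability assay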
Description: SANGER: Inhibition of human LC4-1 cell growth in a cell viability assay.

BC-3 = format: functional, cell-based, Homo sapiens; conditions: Homo sapiens, BC-3;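 note: cell viability assay measuring growth inhibition of human BC-3 cells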
Description: SANGER: Inhibition of human BC-3 cell growth in a cell viability assay.

Structure (SMILES): CC1(C)CNc2cc(NC(=O)c3cccnc3NCc3ccncc3)ccc21 [MOTESANIB]
- IC50 (NB7): > 2000 nM
- IC50 (HuCCT-1): > 2000 nM
- IC50 (SW948): > 2000 nM
- IC50 (CAL-12T): > 2000 nM
- IC50 (SF-295): > 2000 nM
- IC50 (NB14): > 2000 nM
- IC50 (IGROV-1): > 2000 nM
- IC50 (D-566MG): > 2000 nM
- IC50 (NCI-H810): > 2000 nM
- IC50 (LU-99A): > 2000 nM
- IC50 (BFTC-909): > 2000 nM
- IC50 (C32): > 2000 nM
- IC50 (G-402): 1020 nM
- IC50 (MKN-7): > 2000 nM
- IC50 (NCI-H2291): > 2000 nM
- IC50 (A673): > 2000 nM
- IC50 (Daoy): > 2000 nM
- IC50 (NCI-H358): > 2000 nM
- IC50 (EFO-27): > 2000 nM
- IC50 (NCI-H2452): > 2000 nM
- IC50 (Capan-2): > 2000 nM
- IC50 (HMV-2 cell line): > 2000 nM
- IC50 (OVCAR-5): > 2000 nM
- IC50 (EPLC-272H): > 2000 nM
- IC50 (RMG-I): > 2000 nM
- IC50 (MKN-1): > 2000 nM
- IC50 (SN12C): > 2000 nM
- IC50 (SW626): > 2000 nM
- IC50 (TCC-SUP): > 2000 nM
- IC50 (CAL-33): > 2000 nM
- IC50 (A-427): > 2000 nM
- IC50 (SK-HEP1): > 2000 nM
- IC50 (WM-115): > 2000 nM
- IC50 (U-118-MG): > 2000 nM
- IC50 (BHY): > 2000 nM
- IC50 (HT55): > 2000 nM
- IC50 (PANC-08-13): > 2000 nM

Structure (SMILES): Cn1cnc2c(F)c(Nc3ccc(Br)cc3Cl)c(C(=O)NOCCO)cc21 [SELUMETINIB]
- IC50 (NB7): > 4000 nM
- IC50 (HuCCT-1): 1300 nM
- IC50 (SW948): > 4000 nM
- IC50 (CAL-12T): > 4000 nM
- IC50 (SF-295): > 4000 nM
- IC50 (NB14): > 4000 nM
- IC50 (IGROV-1): > 4000 nM
- IC50 (D-566MG): > 4000 nM
- IC50 (NCI-H810): > 4000 nM
- IC50 (LU-99A): > 4000 nM
- IC50 (BFTC-909): > 4000 nM
- IC50 (C32): 98.2 nM
- IC50 (G-402): > 4000 nM
- IC50 (MKN-7): > 4000 nM
- IC50 (NCI-H2291): 762 nM
- IC50 (A673): > 4000 nM
- IC50 (Daoy): > 4000 nM
- IC50 (EFO-27): 3330 nM
- IC50 (NCI-H2452): > 4000 nM
- IC50 (Capan-2): > 4000 nM
- IC50 (OVCAR-5): > 4000 nM
- IC50 (EPLC-272H): > 4000 nM
- IC50 (RMG-I): > 4000 nM
- IC50 (SN12C): 3960 nM
- IC50 (SW626): > 4000 nM
- IC50 (TCC-SUP): > 4000 nM
- IC50 (CAL-33): 1550 nM
- IC50 (A-427): > 4000 nM
- IC50 (SK-HEP1): 2290 nM
- IC50 (WM-115): 268 nM
- IC50 (U-118-MG): > 4000 nM
- IC50 (BHY): 1810 nM
- IC50 (HT55): > 4000 nM
- IC50 (PANC-08-13): > 4000 nM

Structure (SMILES): Nc1ccn([C@@H]2O[C@H](CO)[C@@H](O)C2(F)F)c(=O)n1 [GEMCITABINE]
- IC50 (HuCCT-1): 20.6 nM
- IC50 (SW948): > 1020 nM
- IC50 (CAL-12T): 1.08 nM
- IC50 (23132-87): 43.1 nM
- IC50 (SF-295): 51.1 nM
- IC50 (IGROV-1): < 4 nM
- IC50 (Raji): 431 nM
- IC50 (NCI-H810): 8.56 nM
- IC50 (LU-99A): > 1020 nM
- IC50 (BFTC-909): 146 nM
- IC50 (C32): > 1020 nM
- IC50 (G-402): < 4 nM
- IC50 (MKN-7): > 1020 nM
- IC50 (NCI-H1694): 61.3 nM
- IC50 (MHH-CALL-2): 1020 nM
- IC50 (A673): 34.2 nM
- IC50 (Daoy): < 4 nM
- IC50 (NCI-H1436): > 1020 nM
- IC50 (G-361): 21.1 nM
- IC50 (NCI-H358): 7.16 nM
- IC50 (EFO-27): 9.05 nM
- IC50 (NCI-H748): 355 nM
- IC50 (K052): 137 nM
- IC50 (NCI-H2452): > 1020 nM
- IC50 (Capan-2): > 1020 nM
- IC50 (HMV-2 cell line): 24.3 nM
- IC50 (OVCAR-5): 306 nM
- IC50 (SK-MM-2): 479 nM
- IC50 (RMG-I): > 1020 nM
- IC50 (MKN-1): 78.4 nM
- IC50 (SN12C): 497 nM
- IC50 (SW626): 4.46 nM
- IC50 (TCC-SUP): > 1020 nM
- IC50 (CMK): < 4 nM
- IC50 (CAL-33): 1.89 nM
- IC50 (A-427): 324 nM
- IC50 (SK-HEP1): 6.14 nM
- IC50 (WM-115): > 1020 nM
- IC50 (U-118-MG): > 1020 nM
- IC50 (LC4-1): 74.7 nM
- IC50 (BHY): 1.14 nM
- IC50 (HT55): > 1020 nM
- IC50 (BC-3): 221 nM
- IC50 (PANC-08-13): > 1020 nM

Structure (SMILES): CCN(CC)CCCCNc1ncc2cc(-c3cc(OC)cc(OC)c3)c(NC(=O)NC(C)(C)C)nc2n1 [PD-173074]
- IC50 (NB7): > 2000 nM
- IC50 (HuCCT-1): > 2000 nM
- IC50 (SW948): > 2000 nM
- IC50 (CAL-12T): > 2000 nM
- IC50 (SF-295): > 2000 nM
- IC50 (NB14): > 2000 nM
- IC50 (IGROV-1): > 2000 nM
- IC50 (D-566MG): > 2000 nM
- IC50 (NCI-H810): > 2000 nM
- IC50 (LU-99A): > 2000 nM
- IC50 (BFTC-909): > 2000 nM
- IC50 (C32): > 2000 nM
- IC50 (G-402): > 2000 nM
- IC50 (MKN-7): > 2000 nM
- IC50 (NCI-H2291): > 2000 nM
- IC50 (A673): > 2000 nM
- IC50 (Daoy): > 2000 nM
- IC50 (NCI-H358): > 2000 nM
- IC50 (EFO-27): > 2000 nM
- IC50 (NCI-H2452): > 2000 nM
- IC50 (Capan-2): > 2000 nM
- IC50 (HMV-2 cell line): > 2000 nM
- IC50 (OVCAR-5): > 2000 nM
- IC50 (EPLC-272H): > 2000 nM
- IC50 (RMG-I): > 2000 nM
- IC50 (MKN-1): > 2000 nM
- IC50 (SN12C): > 2000 nM
- IC50 (SW626): > 2000 nM
- IC50 (TCC-SUP): > 2000 nM
- IC50 (CAL-33): > 2000 nM
- IC50 (A-427): > 2000 nM
- IC50 (SK-HEP1): > 2000 nM
- IC50 (WM-115): > 2000 nM
- IC50 (U-118-MG): > 2000 nM
- IC50 (BHY): > 2000 nM
- IC50 (HT55): > 2000 nM
- IC50 (PANC-08-13): > 2000 nM
